Assay: pKa of the azo dye
Format: physicochemical
Conditions: assumes blue color by proton dissociation
Text: The liquid hair dye composition of the present invention contain, as component (A), an azo dye represented by Formula (A-2) below (HC Blue 18). The pKa of the azo dye (A-2) is 6.0, and assumes blue color by proton dissociation.

- pKa: 6
SMILES: NS(=O)(=O)c1ccc2nsc(N=Nc3ccc(O)c(Cl)c3)c2c1 [Example A-2, HC Blue 18]
